Assay results as given in patent US20240407414A1, “DIHYDROCHALCONE DERIVATIVES” (SYMRISE AG, priority 2021, published 2024).
Where “and” joins values, the source holds several entries; their conditions need not be identical. Equal values may be shown once. Entries after “also recorded” stand apart in the source; their conditions may differ.

What was measured:
[1] = Sweet taste / sweetness enhancing properties of 6″-O-acetylphloridzin; details: in vivo
Description: It can therefore not be concluded that any dihydrochalcone glycoside carrying an acetyl substituent will taste sweet or be able to enhance or modulate sweetness.

[2] = Descriptor intensities (0-9) in orange softdrink base, panel of five flavorists; assay type: in vivo; details: for Lingering sweetness (0-9) A / Off note (0-9) A / Onset sweetness (0-9) A / Overall sweetness (0-9) A / acidity (0-9) A / fruity (0-9) A / juicy (0-9) A / mouthfeel (0-9) A / orange (0-9) A: A: substance alone in orange softdrink base; for Lingering sweetness (0-9) A / Off note (0-9) A / Onset sweetness (0-9) A / Overall sweetness (0-9) A / acidity (0-9) A / fruity (0-9) A / juicy (0-9) A / mouthfeel (0-9) A / orange (0-9) A / Lingering sweetness (0-9) B / Off note (0-9) B / Onset sweetness (0-9) B / Overall sweetness (0-9) B / acidity (0-9) B / fruity (0-9) B / juicy (0-9) B / mouthfeel (0-9) B / orange (0-9) B: RS 200, PD 120, HT 10, PH 30 mg/kg, n=5; for Lingering sweetness (0-9) B / Off note (0-9) B / Onset sweetness (0-9) B / Overall sweetness (0-9) B / acidity (0-9) B / fruity (0-9) B / juicy (0-9) B / mouthfeel (0-9) B / orange (0-9) B: B: + 20 mg/kg G92828 in orange softdrink base; for Lingering sweetness (0-9) Δ / Off note (0-9) Δ / Onset sweetness (0-9) Δ / Overall sweetness (0-9) Δ / acidity (0-9) Δ / fruity (0-9) Δ / juicy (0-9) Δ / mouthfeel (0-9) Δ / orange (0-9) Δ: difference B vs A (effect of 20 mg/kg G92828)
Experimental: Different descriptors relevant for the overall liking of an orange softdrink were applied and the differences in intensities of each descriptor (Δ) of FMP (A) to FMP+ compound (1) (B) were determined by a panel of five flavorists (n=5) and given as intensities from 0-9 as shown in Tables 4-12. The panelists were asked to neutralise with tap water between each sample and the intensity of the descriptors of each sample were defined before tasting the next sample. The tasting of each RS, PD, HT or PH (A) were followed by the samples with added RS, PD, HT or PH+compound (1) (B) with each being compared to the intensities of the base.

[3] = Duo test (paired comparison, trained sensory panel) of compounds against 5% sucrose solution; assay type: in vivo; details: 50 mg/kg in 5% sucrose solution; for sweet modul. activity (%): 20 panelists, perceived sweeter than without addition
Description: The sensory impact of trilobatin and compound (1) have been compared by a trained sensory panel (Table 1) using a series of paired comparison tests. The samples were coded and randomized (referred to as Duo test):
Each of compound (1) and trilobatin has been compared with a 5% sucrose solution in water.

[4] = Intrinsic sweetness by Duo test against 1.5% sucrose; assay type: in vivo
Experimental: 200 g/l L. litseifolius leaf extract (47% trilobatin, 7% phloridizin) was dissolved in triacetin and reacted with lipase Novozyme 435 for 6 h at 80° C. After cooling the mixture, the solution was filtrated. The solution contained 4.2% compound 1. The intrinsic sweetness of the solution was determined by a Duo test comparing different concentrations of this solution with a 1.5% sucrose sample. It turned out that 0.15% of the solution (containing 63 mg/kg compound 1) was as sweet as 1.5% sucrose.
The intrinsic sweetness of pure compound (1) (>95%) was determined by a panel of 20 trained panellists. Thereby, a 1.5% sucrose solution was compared by a Duo test with 65 mg/kg of compound (1) in water. […] The intrinsic sweetness of compound (1) in a mixture of trilobatin and diacetyl trilobatins was similar than of pure compound (1).

[5] = Sensory profile of sugar solution with added compounds; assay type: in vivo; details: 80 mg/kg in 5% sucrose solution
[6] = cited from earlier work
[7] = soft drink base and in combination with RS, PD, HT and PH

SMILES: CC(=O)OC[C@H]1O[C@@H](Oc2cc(O)cc(O)c2C(=O)CCc2ccc(O)cc2)[C@H](O)[C@@H](O)[C@@H]1O [6″-O-Acetylphloridzin]
- sweet taste or sweetness enhancing properties [1]: did not show any sweet taste or sweetness enhancing properties

SMILES: COc1ccc([C@@H]2CC(=O)c3c(O)cc(O)cc3O2)cc1O [HT, Hesperetin]
- Lingering sweetness (0-9) A [2]: 0.0
- Off note (0-9) A [2]: 0.0
- Onset sweetness (0-9) A [2]: 5.0
- Overall sweetness (0-9) A [2]: 6.0
- acidity (0-9) A [2]: 4.0
- fruity (0-9) A [2]: 5.0
- juicy (0-9) A [2]: 4.0
- mouthfeel (0-9) A [2]: 4.0
- orange (0-9) A [2]: 5.0
- Lingering sweetness (0-9) B [2]: 0.0
- Off note (0-9) B [2]: 0.0
- Onset sweetness (0-9) B [2]: 6.0
- Overall sweetness (0-9) B [2]: 7.5
- acidity (0-9) B [2]: 3.5
- fruity (0-9) B [2]: 5.0
- juicy (0-9) B [2]: 5.0
- mouthfeel (0-9) B [2]: 4.5
- orange (0-9) B [2]: 5.0
- Lingering sweetness (0-9) Δ [2]: 0.0
- Off note (0-9) Δ [2]: 0.0
- Onset sweetness (0-9) Δ [2]: 1.0
- Overall sweetness (0-9) Δ [2]: 1.5
- acidity (0-9) Δ [2]: −0.5
- fruity (0-9) Δ [2]: 0.0
- juicy (0-9) Δ [2]: 1.0
- mouthfeel (0-9) Δ [2]: 0.5
- orange (0-9) Δ [2]: 0.0

SMILES: O=C(CCc1ccc(O)cc1)c1c(O)cc(O)cc1O [PH, Phloretin]
- Lingering sweetness (0-9) A [2]: 0.0
- Off note (0-9) A [2]: 0.0
- Onset sweetness (0-9) A [2]: 5.0
- Overall sweetness (0-9) A [2]: 6.5
- acidity (0-9) A [2]: 3.5
- fruity (0-9) A [2]: 5.5
- juicy (0-9) A [2]: 5.0
- mouthfeel (0-9) A [2]: 4.0
- orange (0-9) A [2]: 5.0
- Lingering sweetness (0-9) B [2]: 0.0
- Off note (0-9) B [2]: 0.0
- Onset sweetness (0-9) B [2]: 6.0
- Overall sweetness (0-9) B [2]: 6.5
- acidity (0-9) B [2]: 3.0
- fruity (0-9) B [2]: 5.5
- juicy (0-9) B [2]: 5.5
- mouthfeel (0-9) B [2]: 5.0
- orange (0-9) B [2]: 5.0
- Lingering sweetness (0-9) Δ [2]: 0.0
- Off note (0-9) Δ [2]: 0.0
- Onset sweetness (0-9) Δ [2]: 1.0
- Overall sweetness (0-9) Δ [2]: 0.0
- acidity (0-9) Δ [2]: −0.5
- fruity (0-9) Δ [2]: 0.0
- juicy (0-9) Δ [2]: 0.5
- mouthfeel (0-9) Δ [2]: 1.0
- orange (0-9) Δ [2]: 0.0

SMILES: CC(=O)OC[C@H]1O[C@@H](Oc2cc(O)c(C(=O)CCc3ccc(O)cc3)c(O)c2)[C@H](O)[C@@H](O)[C@@H]1O [compound (1), 6″-O-acetyltrilobatin]
- significance of sweet modulating activity / sensory effect [3]: significant
- sweet modul. activity (%) [3]: 27.5% and 27.54%
- concentration of compound 1 contained in solution as sweet as 1.5% sucrose ([4]; in enzymatically acetylated L. litseifolius leaf extract solution (4.2% compound 1) dosed at 0.15%): 63 mg/kg
- intrinsic sweetness in a mixture of trilobatin and diacetyl trilobatins compared with pure compound ([4]; in vivo): similar
- Aftertaste [5]: 1
- Impact [5]: 4
- Intensity [5]: 6
- Mouthfeel [5]: 5
- Lingering sweetness (0-9) B [2]: 0.0
- Off note (0-9) B [2]: 0.0
- Onset sweetness (0-9) B [2]: 4.5
- Overall sweetness (0-9) B [2]: 6.0
- acidity (0-9) B [2]: 3.5
- fruity (0-9) B [2]: 5.0
- juicy (0-9) B [2]: 4.0
- mouthfeel (0-9) B [2]: 4.0
- orange (0-9) B [2]: 5.0
- effect on perceived acidity ([2]; base, RS, HT and PH): reducing perceived acidity
- Lingering sweetness (0-9) Δ [2]: 0.0
- Off note (0-9) Δ [2]: 0.0
- Onset sweetness (0-9) Δ [2]: 0.5
- Overall sweetness (0-9) Δ [2]: 1.0
- acidity (0-9) Δ [2]: −0.5
- fruity (0-9) Δ [2]: 0.0
- juicy (0-9) Δ [2]: 0.0
- mouthfeel (0-9) Δ [2]: 0.5
- effect on acidity ([2]; in combination with PD): no reduction in acidity
- effect on lingering aftertaste ([2]; in combination with PD): slightly reduced
- effect on overall sweetness ([2]; in combination with PH, compared to PH): no increase in overall sweetness
- effect on lingering aftertaste ([2]; in combination with RS): slight increase in lingering aftertaste
- effect on fruity notes ([2]; in combination with RS and PD): increasing fruity notes
- effect on overall sweetness ([2]; in combination with RS, PD and HT): increased
- effect on onset sweetness ([2]; in combination with RS, PD, HT and PH): increases the onset sweetness
- effect on juicy character ([2]; in combination with each tested FMP): increasing the juicy character
- effect on intensity of orange flavor [2, 7]: no impact
- effect on off notes [2, 7]: no impact
- effect on juicy notes ([2]; test base alone): no effect
- effect on mouthfeel ([2]; test base and every tested FMP): improves the mouthfeel

SMILES: O=C(CCc1ccc(O)cc1)c1c(O)cc(O[C@@H]2O[C@H](CO)[C@@H](O)[C@H](O)[C@H]2O)cc1O [trilobatin, phloretin-4′-β-D-glucopyranoside]
- significance of sweet modulating activity / sensory effect [3]: did not have a significant sensory effect; also recorded: did not show a significant sensory effect
- sweet modul. activity (%) [3]: 1.66%
- Aftertaste [5]: 1
- Impact [5]: 3
- Intensity [5]: 4
- Mouthfeel [5]: 5
- taste at 20 mg/kg ([6]; 20 mg/kg): does not taste sweet
- taste at 100 mg/kg ([6]; 100 mg/kg, compared to 0.5% sucrose solution): weakly sweet
- concentration above which sweetness can be detected ([6]; in vivo): above 60 mg/kg
